# Experimental data reported in ChEMBL document CHEMBL1133112, “Structure-function relationships in aminoquinolines: effect of amino and chloro groups on quinoline-hematin complex formation, inhibition of beta-hematin formation, and antiplasmodial activity” (J Med Chem, 2000).
# Active and inactive are the calls of the source. The calls are words filed in the database; no cut-off is given here.
# Assays:
# [1] = tested on: Plasmodium falciparum; test: In vitro antiplasmodial activity against Plasmodium falciparum D10; type: functional, organism-based
# [2] = molecular target: T1, Histidine-rich protein PFHRP-II (Plasmodium falciparum) (UniProt P05227)
# T1 sequence (whole entry): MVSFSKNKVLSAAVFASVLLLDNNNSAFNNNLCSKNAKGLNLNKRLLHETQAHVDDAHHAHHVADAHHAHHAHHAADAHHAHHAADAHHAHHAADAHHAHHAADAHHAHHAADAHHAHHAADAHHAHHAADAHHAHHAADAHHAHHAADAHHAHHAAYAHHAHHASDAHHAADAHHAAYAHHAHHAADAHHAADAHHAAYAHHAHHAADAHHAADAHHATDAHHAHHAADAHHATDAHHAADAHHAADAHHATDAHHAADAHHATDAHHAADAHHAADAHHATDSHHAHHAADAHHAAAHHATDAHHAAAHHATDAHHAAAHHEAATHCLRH
# [3] = tested on: Ferriprotoporphyrin IX
# Description: Association constant with ferriprotoporphyrin IX.
# [4] = tested on: Ferriprotoporphyrin IX; test: LogK (Association constant) with ferriprotoporphyrin IX.
SMILES,IC50 [1] [µM],NI [2],Log K [3],Log K2 [4]
CCN(CC)CCNc1ccnc2ccccc12,0.799,No inhibition,4.75,3.2
CNc1ccc2ccccc2n1,> 10,inactive,4.26,
OCCNc1ccnc2cc(Cl)ccc12,5.07,,4.66,
Nc1ccc2ncccc2c1,> 10,No inhibition,< 2.5,
CC(=O)NCCNc1ccnc2ccccc12,> 10,No inhibition,4.28,
CN(C)CCNc1ccnc2cc(Cl)ccc12,0.0809,,4.96,
Nc1cccc2ncccc12,> 10,No inhibition,< 2.5,
NCCNc1ccnc2cc(Cl)ccc12,0.092,,4.93,
Nc1cnc2ccccc2c1,> 10,inactive,< 2.5,
NCCNc1ccc2ccccc2n1,> 10,No inhibition,4.34,
Clc1ccc2c(Cl)ccnc2c1,> 10,No inhibition,< 2.5,
CNc1ccnc2cc(Cl)ccc12,4,,4.48,
c1ccc2ncccc2c1 [QUINOLINE],> 10,inactive,< 2.5,
Nc1ccnc2ccccc12 [QUINOLIN-4-AMINE],> 10,No inhibition,4.49,
CCN(CC)CCNc1ccnc2cc(Cl)ccc12,0.049,,5.81,4.47
NCCNc1ccnc2ccccc12,4.7,No inhibition,4.59,
CNc1ccnc2ccccc12,> 10,No inhibition,4.38,
Nc1ccnc2cc(Cl)ccc12,3.8,,4.43,
Nc1cccc2cccnc12 [8-AMINOQUINOLINE],> 10,No inhibition,< 2.5,
OCCNc1ccnc2ccccc12,> 10,No inhibition,4.18,
